Several values for one entry are separate records, joined by “and”; a condition that tells them apart may be missing. Identical values can stand only once. Like-named read-outs stand apart in the source and are kept apart here. No end group written: not given here.
Experiments:
[1] = test system: mice with cecal manipulation; assay: GI transit in mice with surgically induced ileus; type: in vivo; conditions: 1 mg/kg orally 30 minutes prior to anesthesia
Description: GI transit was measured in fed mice by oral gavage pf 0.3 ml carmine red in methylcellulose. Whole GI transit time was defined as the appearance of the first red fecal pellet. Upper GI transit time was defined as the appearance as the percentage of the distance traveled along the small intestine by the marker in 30 minutes. Cecal manipulation for 5 minutes or skin incision alone was performed under halothane anesthesia and the marker administered 1 hour after surgery.
Skin incision alone had little effect on transit time.

[2] = test system: strips of rat proximal colon
tryptase [3] = target: T1, tryptase (Homo sapiens, UniProt Q15661); assay: Ca2+ response of myocytes to tryptase pre-incubated with inhibitor; type: cell-based
Description: (§1) Myocytes were incubated in physiological salt solution (PSS) with 2.5 μM Fura-2/AM for 20 min at 37° C. Fluorescence was measured in individual cells using an ICCD video camera (Stanford Photonics, Stanford, Calif.) and a video microscopy acquisition program (Axon Industries, Foster City, Calif.). Fluorescence was measured at 340 and 380 nm excitation and 510 nm emission. The ratio of the fluorescence at the two excitation wavelengths, which is proportional to the [Ca^2+ ]i, was calculated. Fresh cells were studied with each agonist and a minimum of 10 cells analyzed in 2-4 experiments on different days.

tryptase [4] = target: T1, tryptase; assay: Inhibition of the Ca2+ response of myocytes to HMC-1 mast cell filtrate; type: cell-based; parameters: HMC-1 human mast cells; endogenous in cells; host or cells: HMC-1 human mast cells, filtrate after degranulation with substance P
Description: (§2) Degranulation of HMC-1 cells (human mast cell line) with substance P was induced, and a filtrate for Ca^2+ responses in myocytes was assessed, to determine if mast cells release proteases that cleave and activate PAR-2.
as §1
HMC-1 human mast cells (300 μl of 7×10^6 /ml in PSS containing 25 μg/ml heparin) were incubated with 100 μM substance P for 5 min at room temperature to induce degranulation. The suspension was filtered and assayed for stimulation of Ca^2+ mobilization.

PAR-2 = target: T2, PAR-2 (Rattus norvegicus, UniProt Q63645); assay: Ca2+ mobilization by colonic myocytes (Fura-2); type: cell-based; conditions: for EC50: read-out: EC50, increase in [Ca2+]i
T2 construct: endogenous in cells; host or cells: cultured colonic myocytes (rat)
T2 sequence (Q63645 26-397): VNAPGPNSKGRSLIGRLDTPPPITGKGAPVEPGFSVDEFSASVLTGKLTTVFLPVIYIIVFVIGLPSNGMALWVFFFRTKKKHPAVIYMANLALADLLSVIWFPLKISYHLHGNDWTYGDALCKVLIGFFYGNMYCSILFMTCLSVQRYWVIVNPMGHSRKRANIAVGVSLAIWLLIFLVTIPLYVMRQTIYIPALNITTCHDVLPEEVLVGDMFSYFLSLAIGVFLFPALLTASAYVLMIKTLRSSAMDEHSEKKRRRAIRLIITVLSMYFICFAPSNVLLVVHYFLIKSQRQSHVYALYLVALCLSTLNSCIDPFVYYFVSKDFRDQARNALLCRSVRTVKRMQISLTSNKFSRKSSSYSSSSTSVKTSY
Description: Ac. Ca^2+ Mobilization by Colonic Myocytes. The activation of PAR-2 in myocytes was assessed by measuring Ca^2+ mobilization, as described in Example 3.
as §2, §1

tryptase [5] = target: T1, tryptase; conditions: cited from earlier work
trypsin = assay: Ca2+ response of myocytes to trypsin pre-incubated with inhibitor; type: cell-based; conditions: 1 nM trypsin; 10 mg/ml SBTI, 60 min at 37° C. before assay
Description: Ac. Ca^2+ Mobilization by Colonic Myocytes. The activation of PAR-2 in myocytes was assessed by measuring Ca^2+ mobilization, as described in Example 3. Trypsin and AP (SLIGRL-NH2) stimulated a prompt increase in [Ca^2+ ]i.
as §1

T1 sequence (Q15661 31-275): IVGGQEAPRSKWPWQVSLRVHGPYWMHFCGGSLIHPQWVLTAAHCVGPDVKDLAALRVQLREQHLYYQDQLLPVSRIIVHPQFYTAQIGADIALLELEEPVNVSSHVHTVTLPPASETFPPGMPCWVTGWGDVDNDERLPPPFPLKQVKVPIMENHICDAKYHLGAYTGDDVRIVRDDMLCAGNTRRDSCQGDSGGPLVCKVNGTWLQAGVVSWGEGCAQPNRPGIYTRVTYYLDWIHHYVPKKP

In the case of `CN1CCC(=C2c3ccccc3CC(=O)c3sccc32)CC1` [ketotifen], the “effect on inhibition of GI transit produced by abdominal surgery” value ([1]; cecal manipulation) is reported as “partially reversed” and the “effect on transit time in unoperated animals” value ([1]; unoperated) is reported as “little effect”.

With `CCCCC[C@H](O)/C=C/[C@H]1[C@H](O)CC(=O)[C@@H]1C/C=C\CCCC(=O)O` [PGE2] the “effect on colonic motility” value ([2]; 30 nM PGE2) was “inhibited colonic motility”.

With `N=C(N)c1ccc2nc(Cc3nc4ccc(C(=N)N)cc4[nH]3)[nH]c2c1` [BABIM, bis(5-amidino-2-benzimidazolyl) methane] the “Ca2+ response to tryptase after pre-incubation with inhibitor” value (tryptase [3]) was “no Ca^2+ response” and the “inhibition of the [Ca2+]i response to HMC-1 mast cell filtrate” value (tryptase [4]) was 46.5±1% and ~ 50%.

For “substance P: used to induce degranulation of HMC-1 mast cells”, the “Ca2+ mobilization in myocytes” value (PAR-2; 100 μM substance P) was “did not stimulate”.

With `NC1=N[C@H](O)[C@H]2[C@H]3O[C@]4(O)O[C@@H]([C@@H](O)[C@@]2(N1)[C@@H]4O)[C@]3(O)CO` [tetrodotoxin] the “effect on amplitude and frequency of contractions” value [2] was “immediate and sustained increase”.

For RPPGFSPFR [bradykinin], the “effect on spontaneous contractions” value ([2]; 100 nM bradykinin) was “marked inhibition of spontaneous contractions”.

With “tryptase: mast cell protease released upon degranulation” the “effect on amplitude of spontaneous contractions” value ([2]; tryptase at concentrations of up to 90 nM) was “did not alter the amplitude of spontaneous contractions”, the EC50 (PAR-2; colonic myocytes) was ~100 nM and the “fold less potent than trypsin (Ca2+ mobilization)” value (PAR-2; colonic myocytes, tryptase vs trypsin) was 100 fold.

In the case of `CC(=O)N[C@@H](CC(C)C)C(=O)N[C@@H](CC(C)C)C(=O)N[C@H](C=O)CCCNC(=N)N` [leupeptin], the “Ca2+ response to tryptase after pre-incubation with inhibitor” value (tryptase [3]; 40 nM tryptase, 1 μM inhibitor, 5 min at room temperature before assay) is reported as “no Ca^2+ response” and the “inhibition of the [Ca2+]i response to HMC-1 mast cell filtrate” value (tryptase [4]; myocytes, filtrate of HMC-1 cells degranulated with substance P) is reported as 46.5±4%.

For HOE-140, the “effect on bradykinin-induced inhibition of spontaneous contractions” value ([2]; 100 nM bradykinin, pre-incubation with 100 nM HOE-140 for 5 min) was “abolished” and the “effect on the inhibition of colonic motility by trypsin and AP” value ([2]; HOE-140) was “had no effect”.

With `COc1ccc2c(c1)c(CC(=O)O)c(C)n2C(=O)c1ccc(Cl)cc1` [indomethacin] the “effect of pre-incubation on the response to trypsin and AP” value ([2]; 1 μM indomethacin for 15 min) was “had no effect”.

For SLIGRL-NH2 [AP, SLIGRL-NH2], the EC50 (PAR-2; colonic myocytes) was ~1000 nM.

In the case of `CC(C)(C)c1ccc(OC(=O)[C@H]2CC[C@H](CNC(=N)N)CC2)cc1` [GMCHA-OPhBut, trans-4-guanidinomethylcyclohexane-carboxylic acid 4-tert butylphenyl ester], the “concentrations that inhibit tryptase activity” value (tryptase [5]) is given as 1 to 100 µM.

With `COC(=O)[C@@H](N)CCCNC(=N)N[N+](=O)[O-]` [L-NAME, L-N^G -nitro arginine methyl ester] the “effect of pre-incubation on the effects of trypsin and AP” value ([2]; 100 μM L-NAME for 15 min) was “did not prevent”.

B1: trypsin: protease that cleaves and activates PAR-2 (protein, UniProt P00760 24-246, looked up)
Serine protease 1: IVGGYTCGANTVPYQVSLNSGYHFCGGSLINSQWVVSAAHCYKSGIQVRLGEDNINVVEGNEQFISASKSIVHPSYNSNTLNNDIMLIKLKSAASLNSRVASISLPTSCASAGTQCLISGWGNTKSSGTSYPDVLKCLKAPILSDSSCKSAYPGQITSNMFCAGYLEGGKDSCQGDSGGPVVCSGKLQGIVSWGSGCAQKNKPGVYTKVCNYVSWIKQTIASN
With B1 the “effect on motility of tetrodotoxin-treated tissues” value [2] was “inhibited this elevated motility”, the “fold more potent than AP (colonic motility)” value [2] was 10 fold and the “time to recovery of spontaneous activity after washing” value ([2]; 1 μM trypsin for 5 min, then washed extensively) was > 6 h. For the same molecule, the “inhibition of mean amplitude at highest concentration” value ([2]; 3 μM trypsin) was 60%, the “threshold for inhibition of mean amplitude of spontaneous contractions” value ([2]; colon strips (mucosa plus muscle)) was 300 nM and the “effect on spontaneous contractions in the absence of the mucosa” value ([2]; colonic strips with mucosa removed) was “inhibited spontaneous contractions”. The EC50 ([2]; read-out: EC50, reduction in mean amplitude of spontaneous contractions, colon strips (mucosa plus muscle)) was ~500 nM, the “delay before inhibition of motility” value ([2]; trypsin at 1 μM, AP concentration not stated) was 31 ± 5 s and the “fold more potent than AP (Ca2+ mobilization)” value (PAR-2) was 1,000 fold. It also gave an EC50 (PAR-2; colonic myocytes) of ~1 nM.

B2: SBTI: SBTI, pre-incubated with trypsin before assay; abbreviation not expanded (protein, UniProt P01070 25-205, looked up)
Trypsin inhibitor A: DFVLDNEGNPLENGGTYYILSDITAFGGIRAAPTGNERCPLTVVQSRNELDKGIGTIISSPYRIRFIAEGHPLSLKFDSFAVIMLCVGIPTEWSVVEDLPEGPAVKIGENKDAMDGWFRLERVSDDEFNNYKLVFCPQQAEDDKCGDIGISIDHDDGTRRLVVSKNKPLVVQFQKLDKESL
For B2, the “Ca2+ response to trypsin after pre-incubation with inhibitor” value (trypsin) was “no Ca^2+ response”.
